Data set [1] deals with HGFR/c-MET. The data set is described as follows: biomarker levels in IOMM-Lee by multiplex analysis. The class given is cell-based, Human. The source says: (§1) Effect of SEQ ID No 2 on the expression of following 7 biomarkers were estimated in Human Meningioma cell line (IOMM-Lee) using multiplex analysis: TNF-alpha, VEGF, VEGFR2, HGF, HGFR/c-MET, PDGF-BB, and Contactin-1. Levels of another marker, Notch-1 were also estimated by ELISA in the same cell line. These 8 biomarkers play very crucial role in the pathogenesis and progression of Brain Tumor. […] Supernatants were collected and the levels of these 8 markers were investigated.

The subject of data set [2] is TNF-α. The data set is described as follows: biomarker levels in IOMM-Lee by multiplex analysis. Format: cell-based, Human.
Source text: as §1

Data set [3] has as its system Contactin-1. The experiment in a line: biomarker levels in IOMM-Lee by multiplex analysis. The class given is cell-based, Human.
Source text: as §1

In data set [4] the test system is PDGF-BB. The data set is described as follows: biomarker levels in IOMM-Lee by multiplex analysis. Format: cell-based, Human.
Source text: as §1

For data set [5], the system named is HGF. The experiment in a line: biomarker levels in IOMM-Lee by multiplex analysis. Format: cell-based, Human.
Source text: as §1

For data set [6], the system named is VEGF. The experiment in a line: biomarker levels in IOMM-Lee by multiplex analysis. The following applies: 0.1 μM. The class given is cell-based, Human.
Source text: as §1

Data set [7] has as its system VEGFR2. The data set is described as follows: biomarker levels in IOMM-Lee by multiplex analysis. The class given is cell-based, Human.
Source text: as §1

Data set [8] relates to Astrocytoma (U87MG). The experiment in a line: cytotoxicity in Brain Tumor Cell lines by MTT assay. The following applies: 0.05 μM-50 μM, 72 h.
The subject of data set [9] is Neuroblastoma (SH-SY5Y). The description is as above. Format: cell-based, Human. As to conditions: 0.05 μM-50 μM, 72 h. How it is done:
(§2) The SEQ ID NO. […] Untreated cells were used as control. […] Cells were incubated for 3 h at 37° C.

Data set [10] has as its system Glioblastoma (LN-18). The description is as above. Format: cell-based, Human. The following applies: 0.05 μM-50 μM, 72 h. On the procedure:
as §2

Data set [11] concerns Notch-1. The data set is described as follows: biomarker levels in IOMM-Lee by ELISA. Format: cell-based, Human. As to conditions: 0.1 μM.
Source text: as §1
A general note: An ELISA detects its analyte on a solid surface through an enzyme-linked reagent.

Data set [12] relates to Meningioma (IOMM-Lee). The experiment in a line: cytotoxicity in Brain Tumor Cell lines by MTT assay. As to conditions: 0.05 μM-50 μM, 72 h. In general terms: Formazan colour is commonly taken as a measure of viable cells.
Data set [13] concerns Glioma (C6). The data set is described as above. The class given is cell-based, Rat. As to conditions: 0.05 μM-50 μM, 72 h. On the procedure:
as §2

On to `CO[C@H]1C[C@@H]2CC[C@@H](C)[C@@](O)(O2)C(=O)C(=O)N2CCCC[C@H]2C(=O)O[C@H]([C@H](C)C[C@@H]2CC[C@@H](OCCO)[C@H](OC)C2)CC(=O)[C@H](C)/C=C(\C)[C@@H](O)[C@@H](OC)C(=O)[C@H](C)C[C@H](C)/C=C/C=C/C=C/1C` [Everolimus], for which the “Percentage inhibition on levels of HGFR/c-MET” value in data set [1] (0.1 μM) came out at 21.2%; in [1] (5 μM), 41%. The “Percentage inhibition on levels of TNF-α” value came to 42.3% in data set [2] (0.1 μM) and 100% in data set [2] (5 μM). Moreover, the “Percentage inhibition on levels of Contactin-1” value in [3] (0.1 μM) is given as 14.9%; in [3] (5 μM) it was 31.3%. In addition, the “Percentage inhibition on levels of PDGF-BB” value is on record as 1.5% in [4] (0.1 μM) and 67.9% in data set [4] (5 μM). Also, the “Percentage inhibition on levels of HGF” value in [5] (0.1 μM) stood at 59.2%; in data set [5] (5 μM), 80.8%. Moreover, the “Percentage inhibition on levels of VEGF” value in data set [6] is listed as 45.8%. Moreover, the figures for the “Percentage inhibition on levels of VEGFR2” value in data set [7] (0.1 μM) and in [7] (5 μM) were 27.6% and 100%, respectively. For the same compound, the “% of cytotoxicity” value in data set [8] is listed as 43.6%-88.0%; in [9] it was 29.7%-70.1%; in [10] it was 3.5%-90.7%; in data set [12], 44.7%-97.4%; in data set [13], 50.3%-97.2%. Also, in [11], the “Percentage inhibition on levels of Notch-1” value is recorded as 75.9%.
